Experimental data as given in article PMC2887388 (Journal of natural products, 2009).

Columns and labels:
[1] = system: HT-29 human colon cancer cell line; assay: Cytotoxicity assay against HT-29 human colon cancer cell line; format: cell-based; details: HT-29, read-out: cytotoxicity ED50
HT-29 cells = assay: In vivo hollow fiber assay, HT-29 cells; set-up: species or system human; details: cells implanted at i.p. site; doses 2.5, 5, 10, 20 mg/kg
[2] = system: LNCaP (hormone-dependent human prostate cancer) cells; assay: In vivo hollow fiber assay, LNCaP cells; details: cells implanted at i.p. site; doses 2.5, 5, 10, 20 mg/kg

| Structure (SMILES) | IC50 [1] | activity in hollow fiber assay (HT-29) (HT-29 cells) | activity in hollow fiber assay (LNCaP) [2] |
| --- | --- | --- | --- |
| COc1cc2oc3cc(O)c(OC)c(CC=C(C)C)c3c(=O)c2c2c1CC(O)C(C)(C)O2 (centres unmarked) [Compound 1, 11-hydroxy-3-O-methyl-1-isomangostin] | > 10 µM | – | – |
| COc1c(O)cc2oc3cc(O)c4c(c3c(=O)c2c1CC=C(C)C)OC(C)(C)C(O)C4 (centres unmarked) [Compound 2, 11-hydroxy-1-isomangostin] | > 10 µM | – | – |
| COc1c(O)cc2oc3cc(O)c(CC=C(C)C)c(O)c3c(=O)c2c1CC=C(C)C [Compound 5, α-mangostin] | – | inactive | inactive |
| COc1c(O)cc2oc3cc4c(c(O)c3c(=O)c2c1CC=C(C)C)[C@@H](c1c(O)c(CC=C(C)C)c(O)c2c(=O)c3c(CC=C(C)C)c(OC)c(O)cc3oc12)[C@H](C(C)(C)O)O4 [Compound 11, cratoxyxanthone] | > 10 µM | – | – |
